# Source: patent publication US20190298669A1 (priority 2018, published 2019)
# System: A/Mississippi/3/2001 H275Y mutant (H1N1)
# Format: cell-based, influenza A virus
structure (smiles),measurement,value
CCOC(=O)C1=C[C@@H](OC(CC)CC)[C@H](NC(C)=O)[C@@H](N)C1 [oseltamivir],reduction of virus,43%
